The text below walks through data of ChEMBL document CHEMBL5241135, “Activity of N-phenylbenzamide analogs against the neglected disease pathogen, Schistosoma mansoni” (Bioorg Med Chem Lett, 2023).

The structures appear in SMILES notation. The source made the active and inactive calls. No cut-off for these calls is given here.

The nature of data set [1]: Selectivity index, ratio of CC50 for human HEK293 cells to EC50 for antischistosomal activity against adult stage of Schistosoma mansoni. Format: toxicity. The conditions noted are these: read-out: Ratio CC50/EC50.
Data set [2] concerns Schistosoma mansoni. The data set is described as follows: Antischistosomal activity against adult stage of Schistosoma mansoni assessed as degenerative and lethal changes at 5 uM measured after 1 hr. Format: functional, organism-based.
In data set [3] the test system is Schistosoma mansoni. The data set can be described thus: Antischistosomal activity against adult stage of Schistosoma mansoni assessed as degenerative and lethal changes at 5 uM measured after 5 hrs. Format: functional, organism-based.
Data set [4] concerns Schistosoma mansoni. The data set is described as follows: Antischistosomal activity against adult stage of Schistosoma mansoni assessed as reduction in worm motility measured after 24 hrs. Format: functional, organism-based.
Data set [5] relates to Schistosoma mansoni. The data set is described as follows: Antischistosomal activity against adult stage of Schistosoma mansoni assessed as degenerative and lethal changes at 5 uM measured after 48 hrs. Format: functional, organism-based.
In data set [6] the test system is Schistosoma mansoni. The data set can be described thus: Antischistosomal activity against adult stage of Schistosoma mansoni assessed as degenerative and lethal changes at 5 uM measured after 24 hrs. In kind it is functional, organism-based.
The subject of data set [7] is Schistosoma mansoni. The data set is described as follows: Antischistosomal activity against adult stage of Schistosoma mansoni assessed as uncoordinated and slowed motility at 5 uM measured after 24 hrs. In kind it is functional, organism-based.
For data set [8], the system named is Schistosoma mansoni. The data set is described as follows: Antischistosomal activity against adult stage of Schistosoma mansoni assessed as uncoordinated and slowed motility at 5 uM measured after 48 hrs. In kind it is functional, organism-based.
A further data set concerns HEK293. The data set can be described thus: Cytotoxicity against human HEK293 cells measured after 48 hrs. Format: toxicity, cell-based. The settings on record: hek293, 48 h.
Data set [9] relates to Schistosoma mansoni. The data set can be described thus: Antischistosomal activity against adult stage of Schistosoma mansoni assessed as uncoordinated and slowed motility at 5 uM measured after 5 hrs. In kind it is functional, organism-based.
For data set [10], the system named is Schistosoma mansoni. The data set is described as follows: Antischistosomal activity against adult stage of Schistosoma mansoni assessed as uncoordinated and slowed motility at 5 uM measured after 1 hr. Format: functional, organism-based.

As a reminder, the EC50 is the midpoint of the concentration-response curve. On to `O=C(Nc1ccc(Cl)c(Cl)c1)c1ccc(C(F)(F)F)cc1`, for which the selectivity ratio in data set [1] is 123. Besides, the result in the data set on Schistosoma mansoni [2], in the data set with Schistosoma mansoni [3], in the data set on Schistosoma mansoni [5] and in the data set with Schistosoma mansoni [6] was Active. Moreover, the EC50 in the data set with Schistosoma mansoni [4] was found to be 0.08 µM.
In general, CC50 refers to the concentration that lowers cell viability or growth by half. Low readings indicate greater toxicity to the cells, high ones lower toxicity to the cells. Take `O=C(Nc1cccc(C(F)(F)F)c1)c1ccc(F)cc1`: the outcome in the data set with Schistosoma mansoni [7], in the data set with Schistosoma mansoni [8], with Schistosoma mansoni [3], in the data set on Schistosoma mansoni [5], in the data set on Schistosoma mansoni [6] and in the data set on Schistosoma mansoni [9] was inactive. For the same molecule, the CC50 in the data set with HEK293 is over 20 µM.
Regarding `N#Cc1ccc(C(=O)Nc2cccc(C(F)(F)F)c2)cc1`, the result in the data set on Schistosoma mansoni [2], with Schistosoma mansoni [7], in the data set on Schistosoma mansoni [8], in the data set with Schistosoma mansoni [3], in the data set on Schistosoma mansoni [5] and with Schistosoma mansoni [6] was inactive. For the same molecule, the result with Schistosoma mansoni [9] and in the data set on Schistosoma mansoni [10] was inactive. Also, in the data set on HEK293, the CC50 is over 20 µM.
On to `Cc1ccc(NC(=O)c2ccc(F)cc2)cc1C`, for which the result in the data set with Schistosoma mansoni [2], in the data set with Schistosoma mansoni [7], in the data set on Schistosoma mansoni [8], in the data set with Schistosoma mansoni [3], in the data set on Schistosoma mansoni [5] and in the data set on Schistosoma mansoni [6] was inactive. Besides, the outcome in the data set with Schistosoma mansoni [9] and with Schistosoma mansoni [10] was inactive. Also, in the data set with HEK293, the CC50 was over 20 µM.
Regarding `O=C(Nc1ccc(Cl)nn1)c1cccc(F)c1`, the outcome in the data set on Schistosoma mansoni [2], in the data set with Schistosoma mansoni [7], in the data set on Schistosoma mansoni [8], in the data set with Schistosoma mansoni [3], with Schistosoma mansoni [5] and in the data set on Schistosoma mansoni [6] was inactive. The result with Schistosoma mansoni [9] and in the data set on Schistosoma mansoni [10] was inactive. In the data set on HEK293, this molecule gave a CC50 of over 20 µM.
Regarding `COc1ccc(NC(=O)c2ccc(C(F)(F)F)cc2)cc1OC`, the outcome with Schistosoma mansoni [2], in the data set on Schistosoma mansoni [7], in the data set on Schistosoma mansoni [8], in the data set on Schistosoma mansoni [3], with Schistosoma mansoni [5] and with Schistosoma mansoni [6] was inactive. The outcome in the data set on Schistosoma mansoni [9] and in the data set on Schistosoma mansoni [10] was inactive. This molecule also came in with a CC50 in the data set on HEK293 of over 20 µM.
As for `COc1ccc(NC(=O)c2ccc(C#N)cc2)cc1OC`, the result in the data set with Schistosoma mansoni [2], in the data set with Schistosoma mansoni [7], in the data set with Schistosoma mansoni [8], with Schistosoma mansoni [3], in the data set on Schistosoma mansoni [5] and in the data set with Schistosoma mansoni [6] was inactive. Moreover, the result in the data set with Schistosoma mansoni [9] and in the data set with Schistosoma mansoni [10] was inactive. In the data set on HEK293, this molecule displayed a CC50 of over 20 µM.
As for `N#Cc1ccc(C(=O)Nc2ccc(F)c(F)c2)cc1`, the outcome in the data set on Schistosoma mansoni [2], with Schistosoma mansoni [7], with Schistosoma mansoni [8], in the data set with Schistosoma mansoni [3], in the data set on Schistosoma mansoni [5] and with Schistosoma mansoni [6] was inactive. In addition, the result in the data set with Schistosoma mansoni [9] and in the data set with Schistosoma mansoni [10] was inactive. In addition, the 50% cytotoxic concentration (CC50) in the data set on HEK293 is over 20 µM.
In the case of `COc1ccc(NC(=O)c2ccc(F)cc2)cc1OC`, the result in the data set with Schistosoma mansoni [7], with Schistosoma mansoni [8], with Schistosoma mansoni [3], with Schistosoma mansoni [5], in the data set on Schistosoma mansoni [6] and in the data set on Schistosoma mansoni [9] was inactive. Also, the CC50 in the data set with HEK293 was over 20 µM.
Regarding `O=C(Nc1ccc(Cl)c(Cl)c1)c1ccc(F)cc1`, the result with Schistosoma mansoni [7], in the data set on Schistosoma mansoni [8], with Schistosoma mansoni [9] and with Schistosoma mansoni [10] was Active. Besides, the CC50 in the data set with HEK293 is over 20 µM.
In the case of `Cc1ccc(NC(=O)c2ccccc2)cc1C`, the result in the data set with Schistosoma mansoni [2], with Schistosoma mansoni [7], in the data set on Schistosoma mansoni [8], in the data set on Schistosoma mansoni [3], in the data set with Schistosoma mansoni [5] and in the data set with Schistosoma mansoni [6] was inactive. The result in the data set with Schistosoma mansoni [9] and in the data set on Schistosoma mansoni [10] was inactive. In the data set on HEK293, the CC50 was over 20 µM.
As for `O=C(Nc1ccc(F)c(F)c1)c1ccc(C(F)(F)F)cc1`, in [1], the selectivity ratio was found to be 3.84. The result in the data set with Schistosoma mansoni [7], in the data set with Schistosoma mansoni [5], in the data set on Schistosoma mansoni [9] and with Schistosoma mansoni [10] was Active. The EC50 in the data set with Schistosoma mansoni [4] turned out to be 3.8 µM. The molecule further had a CC50 with HEK293 of 14.6 µM.
`COc1ccc(NC(=O)c2ccccc2)cc1OC`: the result in the data set with Schistosoma mansoni [2], in the data set with Schistosoma mansoni [7], with Schistosoma mansoni [8], in the data set on Schistosoma mansoni [3], in the data set on Schistosoma mansoni [5] and in the data set with Schistosoma mansoni [6] was inactive. Besides, the outcome in the data set on Schistosoma mansoni [9] and in the data set on Schistosoma mansoni [10] was inactive. For the same molecule, in the data set on HEK293, the CC50 is over 20 µM.
Take `O=C(Nc1cccc(C(F)(F)F)c1)c1ccc(C(F)(F)F)cc1`: in data set [1], the selectivity ratio amounted to 10.1. Also, the result in the data set with Schistosoma mansoni [2], with Schistosoma mansoni [3], in the data set with Schistosoma mansoni [5] and in the data set on Schistosoma mansoni [6] was Active. In the data set with Schistosoma mansoni [4], the EC50 stood at 1.1 µM.
Take `O=C(Nc1ccc(C(F)(F)F)cc1)c1ccc(C(F)(F)F)cc1`: the selectivity ratio in [1] is over 16. The outcome in the data set with Schistosoma mansoni [7] and in the data set with Schistosoma mansoni [5] was Active. In addition, in the data set on Schistosoma mansoni [4], the EC50 came to 1.25 µM. This molecule also displayed a CC50 with HEK293 of over 20 µM.
As for `O=C(Nc1ccc(Cl)c(Cl)c1)c1ccccc1`, the outcome in the data set with Schistosoma mansoni [7], in the data set with Schistosoma mansoni [8], in the data set on Schistosoma mansoni [9] and with Schistosoma mansoni [10] was Active. Further, the CC50 in the data set on HEK293 was over 20 µM.
As for `COc1ccc(NC(=O)c2cc(Cl)ccc2O)cc1OC`, the outcome in the data set with Schistosoma mansoni [2] and in the data set with Schistosoma mansoni [10] was inactive. Besides, the CC50 in the data set on HEK293 was over 20 µM.
In the case of `O=C(Nc1ccc(F)c(F)c1)c1ccccc1`, the result with Schistosoma mansoni [2], in the data set on Schistosoma mansoni [7], in the data set on Schistosoma mansoni [8], in the data set with Schistosoma mansoni [3], in the data set with Schistosoma mansoni [5] and in the data set with Schistosoma mansoni [6] was inactive. The outcome in the data set on Schistosoma mansoni [9] and in the data set with Schistosoma mansoni [10] was inactive. This molecule displayed a CC50 in the data set on HEK293 of over 20 µM.
`N#Cc1ccc(C(=O)Nc2ccccc2)cc1`: the outcome in the data set with Schistosoma mansoni [2], in the data set with Schistosoma mansoni [7], with Schistosoma mansoni [8], in the data set on Schistosoma mansoni [3], in the data set on Schistosoma mansoni [5] and with Schistosoma mansoni [6] was inactive. The result in the data set on Schistosoma mansoni [9] and in the data set on Schistosoma mansoni [10] was inactive. The CC50 with HEK293 is over 20 µM.
In the case of `Cc1ccc(NC(=O)c2ccc(C#N)cc2)cc1C`, the result in the data set with Schistosoma mansoni [2], with Schistosoma mansoni [7], with Schistosoma mansoni [8], in the data set with Schistosoma mansoni [3], in the data set on Schistosoma mansoni [5] and in the data set on Schistosoma mansoni [6] was inactive. The outcome with Schistosoma mansoni [9] and in the data set on Schistosoma mansoni [10] was inactive. In the data set on HEK293, this molecule came in with a CC50 of over 20 µM.
For the molecule `O=C(Nc1ccccc1)c1ccc(F)cc1`, the result in the data set on Schistosoma mansoni [2], in the data set on Schistosoma mansoni [7], in the data set on Schistosoma mansoni [8], in the data set on Schistosoma mansoni [3], with Schistosoma mansoni [5] and with Schistosoma mansoni [6] was inactive. Further, the outcome in the data set with Schistosoma mansoni [9] and in the data set with Schistosoma mansoni [10] was inactive. In the data set with HEK293, this molecule returned a CC50 of over 20 µM.
With `Cc1ccc(NC(=O)c2ccc(C(F)(F)F)cc2)cc1C`, the selectivity ratio in [1] was over 5.4. For the same molecule, in the data set with Schistosoma mansoni [4], the EC50 came out at 3.7 µM. For the same molecule, the outcome in the data set on Schistosoma mansoni [5], with Schistosoma mansoni [6], in the data set on Schistosoma mansoni [9] and with Schistosoma mansoni [10] was Active. In the data set on HEK293, this molecule yielded a CC50 of over 20 µM.
As to `O=C(Nc1ccccc1)c1ccc(C(F)(F)F)cc1`, the outcome in the data set with Schistosoma mansoni [2], in the data set with Schistosoma mansoni [7], in the data set on Schistosoma mansoni [8], with Schistosoma mansoni [3], in the data set with Schistosoma mansoni [5] and in the data set with Schistosoma mansoni [6] was inactive. In addition, the outcome in the data set with Schistosoma mansoni [9] and with Schistosoma mansoni [10] was inactive. The molecule also showed a CC50 in the data set on HEK293 of over 20 µM.
Take `O=C(Nc1ccc(F)c(F)c1)c1ccc(F)cc1`: the outcome with Schistosoma mansoni [7], in the data set with Schistosoma mansoni [8], in the data set on Schistosoma mansoni [5] and with Schistosoma mansoni [6] was inactive. This molecule had a CC50 in the data set on HEK293 of over 20 µM.
On to `O=C(Nc1cccc(C(F)(F)F)c1)c1ccccc1`, for which the result with Schistosoma mansoni [7], in the data set on Schistosoma mansoni [8], in the data set with Schistosoma mansoni [5] and in the data set on Schistosoma mansoni [6] was inactive. In addition, the CC50 in the data set with HEK293 was over 20 µM.
